Assay results reported in patent US7101888B2, “Oral liquid tolterodine composition” (Pharmacia & UpJohn Company, priority 2002, dated 2006).

How the values were obtained:
[1] = Chemical stability of tolterodine in aqueous media; type: physicochemical
[2] = test system: muscarinic receptors of the salivary gland; details: compared with oxybutynin; cited from earlier work

Cc1ccc(O)c([C@H](CCN(C(C)C)C(C)C)c2ccccc2)c1 [tolterodine, (R)-N,N-diisopropyl-3-(2-hydroxy-5-methylphenyl)-3-phenylpropanamine]
stability in aqueous solutions of tolterodine salts ([1]; alkaline pH): unstable | pH of optimum stability ([1]; aqueous solutions of tolterodine salts): about 4 | chemical stability in aqueous media ([1]; neutral to alkaline pH levels): chemical instability | affinity for the muscarinic receptors of the salivary gland relative to oxybutynin [2]: about eight times lower
